Measurements from PMC7126875 (Bioorganic & Medicinal Chemistry Letters, 2007).

Legend:
[1] = test system: SARS-CoV Frankfurt-1 strain; format: cell-based
[2] = test system: SARS-CoV Frankfurt-1 strain; conditions: cited from earlier work
[3] = test system: SARS-CoV Frankfurt-1 strain; conditions: cited from earlier work; remark: listed apart in the source
Vero E6 cells = conditions: cited from earlier work
[4] = test system: SARS-CoV Frankfurt-1 strain; format: cell-based; remark: listed apart in the source

SMILES	anti-SARS-CoV activity (in words) [1]	Antiviral index (50% toxic dose divided by 50% inhibitory dose) [2]	concentration required to decrease the virus yield to one-tenth of the control [3]	CC50 (Vero E6 cells) [µM]	also measured
OC[C@H]1O[C@@H](n2cnc3c(Cl)ncnc32)C[C@@H]1O [Compound 6]	weak antiviral activity	–	–	–	–
NC(=O)c1ncn([C@@H]2O[C@H](CO)[C@@H](O)[C@H]2O)c1O [Mizoribine]	–	>52	approximately 35 μM	> 700	–
OC[C@@H]1C[C@@H](O)[C@H](n2cnc3c(Cl)ncnc32)O1 [Compound 7]	weak antiviral activity	–	–	–	–
OCC1CC(n2cnc3c(Cl)ncnc32)C1CO (stereo not shown) [Compound 10]	almost no activity	–	–	–	–
NC(=O)c1ncn([C@@H]2O[C@H](CO)[C@@H](O)[C@H]2O)n1 [Ribavirin]	–	>10	~200 µM	> 850	–
OC[C@H]1O[C@@H](n2cnc3c(Cl)ncnc32)[C@H](O)[C@@H]1O [Compound 1]	–	–	–	–	concentration required to reduce the virus yield to one-hundredth of the control [4]: approximately 20 μM
